Reference: patent publication US9163066B2, “Antimicrobial lytic peptides” (priority 2010, dated 2015)
Read-outs that look alike come from different tables or passages of the source.

Columns and labels:
[1] = system: pathogens of cotton, poplar and pome fruits such as pears and apples; conditions: tested by a number of labs throughout the world; cited from earlier work
[2] = system: bacteria; experiment: Antibacterial activity of the peptides, broth microdilution MIC, mean activity (Table II); assay type: cell-based; conditions: overnight incubation (18 to 24 h)
Experimental: (§1) Minimum Inhibitory Concentration or MIC for the purpose of this invention is the lowest concentration of an antimicrobial that will inhibit the visible growth of a microorganism after overnight incubation. Minimum inhibitory concentrations are important in diagnostic laboratories to confirm resistance of microorganisms to an antimicrobial agent and also to monitor the activity of new antimicrobial agents. A MIC is generally regarded as the most basic laboratory measurement of the activity of an antimicrobial agent against an organism. MBC is defined as the lowest concentration of an antimicrobial agent needed to kill 99.9% of the initial organism inoculum. Presently, specific guidelines for interpretation are not available; therefore, a clinician knowledgeable in both bactericidal testing and infectious diseases should be available to interpret the results.
(§2) MICs were determined by the broth microdilution method described by the National Committee for Clinical Laboratory Standards (17). Serial twofold dilutions of each peptide solution were prepared (final volume, […]) in microtiter trays with appropriate medium. Each dilution series included control wells containing bacteria without peptide. A total of […] of the adjusted inoculum (100,000 organisms) was added to each well, and then the trays were incubated at
(§3) in ambient air overnight (18 to 24 h). The MIC of each peptide for each isolate was read as the lowest concentration of peptide that inhibited visible growth of the organism.
The above in vitro tests and analyses were conducted on a set of designed peptides of the present invention; and, for comparative purposes, naturally derived molecules.

[3] = system: red blood cells (erythrocytes); experiment: Hemolytic activity of the peptides (hemoglobin release, absorbance at 412 nm); assay type: cell-based
Experimental: Hemolysis as defined herein is an in vitro assay where the compounds tendency to lyse red blood cells is determined. Presumably, the compounds that are less hemolytic will be less toxic in vivo. Increasing amounts of compound are added to solutions containing red blood cells and left for a specified time and then lysis is determined spectrophotometrically by measuring hemoglobin release.
A small volume of a suspension of erythrocytes (about 100 million) is kept on ice with a specific amount of lytic peptide. The cells are then placed in a 37° C. water bath for 10 min, vortexed and centrifuged at 1000 g for 2 min. The supernatant was removed and the amount of hemoglobin that was released was determined by the samples' absorbance at 412 nm. Control values without added peptide were subtracted from the absorbance readings.
The numerical difference between the value of the mean of hemolysis and the mean of the activity is a useful way to determine those peptides having the most desired activity.

[4] = system: Xanthomonas campestris; experiment: Antimicrobial activity against pathogens (MIC80 / MBC100); assay type: cell-based
Description: (§4) A comparison of antimicrobial activity for these two naturally occurring peptides against various pathogens (combined fungal and bacterial) is summarized below

[5] = system: Fusarium moniliforme; experiment: as above; assay type: cell-based
Description: as §4

[6] = system: Fusarium oxysporum; experiment: as above; assay type: cell-based; conditions: concentration necessary to kill 100%
Description: as §4

[7] = system: Aspergillus flavus; experiment: as above; assay type: cell-based
Description: as §4

[8] = system: Aspergillus fumigatus; experiment: as above; assay type: cell-based; conditions: concentration necessary to kill 100%
Description: as §4

[9] = system: Erwinia stewartii; experiment: as above; assay type: cell-based; conditions: concentration necessary to kill 100%
Description: as §4

[10] = system: agrobacterium, Sinorhizobium, Xanthomonas; experiment: MIC by broth microdilution, mean over B1-B3; assay type: cell-based; conditions: mean of MIC for B1, B2, B3
Experimental: as §1, §2, §3

[11] = system: Sinorhizobium; experiment: MIC by broth microdilution; assay type: cell-based; parameters: unit not given here
Experimental: as §1, §2, §3

[12] = system: agrobacterium; experiment: MIC by broth microdilution; assay type: cell-based; parameters: unit not given here
Experimental: as §1, §2, §3

[13] = system: Xanthomonas; experiment: MIC by broth microdilution; assay type: cell-based; parameters: unit not given here
Experimental: as §1, §2, §3

[14] = system: angiogenesis; conditions: known activity, seen as a safety problem for humans; cited from earlier work
[15] = concentration necessary to kill 100%
[16] = erythrocytes, 37° C. for 10 min
[17] = concentration of TP necessary to limit growth by 80%

Substance: FKLRAKIKVRLRAKIKL [D4E1, D4E1 (AgroMed), earlier synthetic lytic peptide tested by a number of labs]
- efficacy in limiting plant pathogens [1]: efficacious in limiting pathogens of cotton, poplar and pome fruits
- Mean Activity [2]: 0.77 µM
- Mean of Hemolysis [3]: 3.6 µM
- D4E1 MBC100 [4, 15]: 2 µM
- D4E1 MBC100 [5, 15]: 3 µM
- D4E1 MBC100 [6]: 3 µM
- D4E1 MBC100 ([7]; concentration of D4E1 necessary to kill 100% of the pathogens): 12 µM
- D4E1 MBC100 [8]: 12 µM
- D4E1 MBC100 [9]: 1 µM

Substance: KAFKKAFKKFKKACFKGLCAKKFKKFAKKFAK [AGM 183]
- Mean [10]: 1.44
- MIC for B2 [11]: 0.3
- MIC for B1 [12]: 3
- MIC for B3 [13]: 1

Substance: KARLKFCFKGLCIKIKVR [AGM 181]
- Mean [10]: 0.77
- MIC for B2 [11]: 0.3
- MIC for B1 [12]: 1
- MIC for B3 [13]: 1

Substance: KFAKKFKKFAKKFCFKGLCAFKKAFKKFKKAF [AGM 184]
- Mean [10]: 0.77
- MIC for B2 [11]: 0.3
- MIC for B1 [12]: 1
- MIC for B3 [13]: 1

Substance: KIKARLCLGKFCIKARLK [AGM 182]
- Mean [10]: 0.77
- MIC for B2 [11]: 0.3
- MIC for B1 [12]: 1
- MIC for B3 [13]: 1

Substance: KWCFRVCYRGICYRRCR [TP, defensin-like peptide found in the hemolymph of the horseshoe crab]
- Mean Activity [2]: 0.3 µM
- Mean of Hemolysis [3, 16]: 3 µM
- TP MIC80 [4, 17]: 0.77 µM
- TP MIC80 [5, 17]: 21 µM
- TP MIC80 [7, 17]: 34 µM

Substance: Pyrrhocoricin (H): naturally derived molecule tested for comparative purposes (VDKGSYLPRPTPPRPIYNRN; UniProt P37362 1-20, looked up)
- Mean Activity [2]: 26.67 µM
- Mean of Hemolysis [3, 16]: 1.6 µM

Substance: RRRPRPPYLPRPRPPPFFPPRLPPRIPPGFPPRFPPRFP [PR39, antimicrobial peptide found in swine]
- activities in mammals [14]: stimulation of angiogenesis
